Data reported in patent US8658660B2, “5-fluoro-4-imino-3,4-dihydropyrimidin-2-(1H)-ones derivatives” (Dow AgroSciences, LLC., priority 2011, dated 2014).

Assays:
[1] = system: Venturia inaequalis (VENTIN); assay: Evaluation of fungicidal activity: apple scab (VENTIN); type: in vivo; conditions: apple seedlings, percent control vs untreated inoculated plants
Procedure: Evaluation of Fungicidal Activity: Apple Scab (Venturia inaequalis; Bayer code […]) Apple seedlings (McIntosh or Golden Delicious) were grown in Metro mix and inoculated with a spore suspension containing 5×10^5 spore/ml. Plants were placed in a dew room for 24 hours with 100% relative humidity and then transferred to a greenhouse with a temperature of 18° C. for disease to develop. The following table presents the activity of typical compounds of the present disclosure when evaluated in these experiments. The effectiveness of the test compounds in controlling disease was determined by assessing the severity of disease on treated plants, then converting the severity to percent control based on the level of disease on untreated, inoculated plants.

[2] = system: Mycosphaerella graminicola; anamorph: Septoria tritici (SEPTTR); assay: Evaluation of fungicidal activity: leaf blotch of wheat (SEPTTR); type: in vivo, Septoria tritici on wheat plants (variety Yuma); conditions: wheat plants, percent control vs untreated inoculated plants
Procedure: Evaluation of Fungicidal Activity: Leaf Blotch of Wheat (Mycosphaerella graminicola; anamorph: Septoria tritici; Bayer code […]) Wheat plants (variety Yuma) were grown from seed in a greenhouse in 50% mineral soil/50% soil-less Metro mix until the first leaf was fully emerged, with 7-10 seedlings per pot. These plants were inoculated with an aqueous spore suspension of Septoria tritici either prior to or after fungicide treatments. After inoculation the plants were kept in 100% relative humidity (one day in a dark dew chamber followed by two to three days in a lighted dew chamber) to permit spores to germinate and infect the leaf. The plants were then transferred to a greenhouse for disease to develop. The following table presents the activity of typical compounds of the present disclosure when evaluated in these experiments. The effectiveness of the test compounds in controlling disease was determined by assessing the severity of disease on treated plants, then converting the severity to percent control based on the level of disease on untreated, inoculated plants.

SMILES | VENTIN 100 PPM 1DP (One-Day Protectant activity, % disease control rating) [1] | SEPTTR 100 PPM 1DP (One-Day Protectant activity, % disease control rating) [2] | SEPTTR 100 PPM 3DC (Three-Day Curative activity, % disease control rating) [2]
Cn1c(=O)[nH]cc(F)c1=N [Cmpd 1, 5-fluoro-4-imino-3-methyl-3,4-dihydropyrimidin-2(1H)-one] | B (51-75) | A (76-100) | A (76-100)
N=c1c(F)c[nH]c(=O)n1Cc1cccs1 [Cmpd 2, 5-fluoro-4-imino-3-(thiophen-2-ylmethyl)-3,4-dihydropyrimidin-2(1H)-one] | – | B (51-75) | A (76-100)
[2H]C([2H])([2H])n1c(=O)[nH]cc(F)c1=N [Cmpd 3, 5-fluoro-4-imino-3-(trideuteriomethyl)-1H-pyrimidin-2-one] | – | D (0-25) | D (0-25)
